Measurements taken from PubChem BioAssay AID198 (DTP/NCI, 2004).
Inconclusive results and toxic doses are left out. The calls were made as follows: active = survival T/C of 150% or more; inactive = T/C below 125% in these data.

Tested on: B16 melanoma ip, C57BL/6 mice, median survival T/C
Test: NCI In Vivo Anticancer Drug Screen. Data for tumor model B16 Melanoma (intraperitoneal) in C57BL/6 mice
Settings: endpoint: median survival time, higher = longer survival
Procedure: The antitumor activity of compounds was measured in mice bearing transplantable tumors. Survival or tumor size were measured and the results are expressed as the measurement made in the treated group (T) divided by the measurement made in the vehicle treated control group (C). The tumor model used in this assay is B16 Melanoma (intraperitoneal) in C57BL/6 mice

[1] = dose: 12.5 mg/kg/injection, schedule: Q01DX009 (ip), vehicle: saline
[2] = dose: 25.0 mg/kg/injection, schedule: Q01DX009 (ip), vehicle: saline

Measured: T/C

O=C1CN=C(c2ccc[nH]2)c2cc(Cl)ccc2N1
inactive: [1] 107 % of control | dose: 25.0 mg/kg/injection, schedule: Q01DX009 (ip), vehicle: saline with Tween-80 107 % of control | [2] 105 % of control | dose: 50.0 mg/kg/injection, schedule: Q01DX001 (ip), vehicle: saline 100 % of control | dose: 50.0 mg/kg/injection, schedule: Q01DX009 (ip), vehicle: saline with Tween-80 100 % of control | dose: 50.0 mg/kg/injection, schedule: Q01DX009 (ip), vehicle: saline 97 % of control | dose: 100.0 mg/kg/injection, schedule: Q01DX001 (ip), vehicle: saline 100 % of control | dose: 100.0 mg/kg/injection, schedule: Q01DX009 (ip), vehicle: saline with Tween-80 103 % of control | dose: 100.0 mg/kg/injection, schedule: Q01DX009 (ip), vehicle: saline 97 % of control | dose: 200.0 mg/kg/injection, schedule: Q01DX001 (ip), vehicle: saline 97 % of control | dose: 200.0 mg/kg/injection, schedule: Q01DX009 (ip), vehicle: saline with Tween-80 107 % of control | dose: 200.0 mg/kg/injection, schedule: Q01DX009 (ip), vehicle: saline 112 % of control | dose: 400.0 mg/kg/injection, schedule: Q01DX001 (ip), vehicle: saline 102 % of control

COc1cc([C@@H]2c3cc4c(cc3C[C@H]3COC(=O)[C@@H]32)OCO4)cc(OC)c1OC
inactive: dose: 6.25 mg/kg/injection, schedule: Q01DX009 (ip), vehicle: saline with Tween-80 110 % of control | dose: 12.5 mg/kg/injection, schedule: Q01DX009 (ip), vehicle: saline with Tween-80 117 % of control

N=[N+]=CC(=O)OCC(N)C(=O)O (stereo unspecified)
inactive: dose: 3.13 mg/kg/injection, schedule: Q01DX009 (ip), vehicle: saline 96 % of control | dose: 6.25 mg/kg/injection, schedule: Q01DX009 (ip), vehicle: saline 100 % of control | [1] 86 % of control | [2] 90 % of control

COc1ccc(-c2c(C)c(C(=O)O)nc(-c3ccc4c(O)c(OC)c5c(c4n3)=NC(C)(C)N=5)c2N)c(O)c1OC
inactive: dose: 10.0 mg/kg/injection, schedule: Q01DX009 (ip), vehicle: saline 124 % of control | dose: 20.0 mg/kg/injection, schedule: Q01DX009 (ip), vehicle: saline 107 % of control
